Assay results as given in PubChem BioAssay (NCI).
Where “and” joins values, the source holds several entries; their conditions need not be identical. Equal values may be shown once.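 The compound was tested at five concentrations on cells cultured in 96-well plates, with a 48-hour exposure period. The concentration for 50% growth inhibition is given as GI50. At the TGI there is no net growth.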

Tests used:
Assay in all cases: growth of human tumour cells (NCI), 48 h
[1] = test system: MDA-MB-435
[2] = test system: RXF 393 renal
[3] = test system: PC-3 prostate
[4] = test system: 786-0 renal
[5] = test system: HT29 colon
[6] = test system: SW-620 colon
[7] = test system: HOP-62 NSCLC
[8] = test system: HL-60(TB) leukemia
[9] = test system: U251 CNS
[10] = test system: SK-OV-3 ovarian

Compound	GI50 [1] [µM]	TGI [1] [µM]	GI50 [2] [µM]	TGI [2] [µM]	GI50 [3] [µM]	TGI [3] [µM]	GI50 [4] [µM]	TGI [4]	GI50 [5] [µM]	TGI [5] [µM]	GI50 [6] [µM]	TGI [6] [µM]	GI50 [7] [µM]	TGI [7]	GI50 [8] [µM]	TGI [8]	GI50 [9] [µM]	TGI [9] [µM]	GI50 [10] [µM]	TGI [10]
CCOc1ccc2c(c1)C(=O)c1c-2n(CCCN)c(=O)c2cc([N+](=O)[O-])ccc12	0.294	1.95	0.499	1.96	0.297	2.14	0.0291	0.214 µM	0.126	1.12	0.0516	1.36	< 0.0108	1.22 µM	0.314	2.4 µM	0.0103	1.22	–	–
OCc1ncc(-c2ccccc2)s1	> 100	> 100	> 100	> 100	> 100	> 100	> 100	> 100 µM	> 100	> 100	> 100	> 100	> 100	> 100 µM	> 100	> 100 µM	> 100	> 100	> 100	> 100 µM
CN(C)CCCN1c2ccc(O)cc2Sc2ccc(Cl)cc21	–	21.1	–	32.6	–	18	–	24 µM	–	14.7	–	39.6	–	29.5 µM	–	30.8 µM	–	21.6	–	32.1 µM
CCOC(=O)Nc1ccc(C(=O)/C=C/c2ccccc2)cc1	5.13	> 100	22.5	49.1	30.9	> 100	26.3	81.5 µM	10.1	> 100	19.2	> 100	20.4	47.3 µM	31.4	> 100 µM	12.6	30.4	26.3	77.5 µM
N=C1N=C(N)S/C1=C\c1ccc2ncccc2c1	> 25	> 25	> 25	> 25	> 25	> 25	> 25	> 25 µM	> 25	> 25	> 25	> 25	> 25	> 25 µM	> 25	> 25 µM	> 25	> 25	> 25	> 25 µM
C[C@@H]1CC[C@@H]2[C@@H]1[C@H](OC(=O)c1ccc3ccccc3c1)[C@]1(C3CCCCC3)C[C@@H](OC(=O)CO)[C@@]2(C)O1	14.1	29.4	0.0702	8.25	4.2	19.2	5.41	20 µM	4.38	18.3	13	30.4	12.8	25.6 µM	9.23	30.6 µM	10.9	23	14.4	29 µM
Cc1ccc(S(=O)(=O)NNC(C[N+](=O)[O-])c2ccccc2)cc1 (centres undefined)	–	11.2	–	11.2	–	> 100	–	> 100 µM	–	3.99	–	> 100	–	74.5 µM	–	21.9 µM	–	60.5	–	46.3 µM
CC(C)c1ccc(/C=N/N=C(N)N)cc1	1.63	4.72	3.8	16.6	4.25	18.6	12.4	27.3 µM	3.19	9.65	2.9	11.6	4.61	17.9 µM	4.36	11.3 µM	4.63	17	3.24	13 µM
CC(=O)OC1CC2(O)C(CCC3(C)C(c4ccc(=O)oc4)CCC32O)C2(C)CCC(OC3OC(CO)C(O)C(O)C3O)C=C12 (centres undefined)	0.0342	0.139	0.0199	0.0538	0.0248	0.125	0.0129	0.03 µM	0.045	0.381	0.0275	0.144	0.0201	0.144 µM	0.0232	0.0579 µM	0.0348	0.136	0.0447	0.717 µM
COc1cccc2c1C(=O)c1c(O)c3c(c(O)c1C2=O)C[C@@](O)(C(C)=O)C[C@@H]3OC1CC(O)C(O)C(C)O1 (some centres undefined)	–	27.7	–	9.33	–	31.9	–	8.12 µM and 19.4 µM	–	–	–	35.5	–	7.09 µM and 1.78 µM	–	1.94 µM and 1.2 µM	–	–	–	8.99 µM and 42.6 µM
NC(=S)N/N=C/c1ccc(OC(=O)COc2ccccc2)cn1	10.9	> 100	5.34	> 100	5.34	> 100	3.89	> 100 µM	39	> 100	5.02	> 100	11.1	80.8 µM	1.18	> 100 µM	4.15	> 100	40.9	> 100 µM
N#CSCC1CC(O)(c2ccccc2)CC(c2ccc(Cl)cc2)O1 (centres undefined)	1.9	4.8	1.94	3.72	2.47	7.49	2.14	4.66 µM	3.44	8.74	1.83	3.35	4.46	14.9 µM	2.52	5.3 µM	2.64	9.03	14.3	27.5 µM
COc1cc2oc(-c3cccc(C(=O)Nc4ccc(C)cc4)c3)cc(=O)c2c(OC)c1OC	2.26	7.64	0.775	5.91	3.49	> 100	2.06	6.11 µM	2.55	> 100	4.73	> 100	3.68	28.3 µM	1.86	4.59 µM	3.26	> 100	3.13	68.4 µM
COc1ccccc1Nc1nc2ccccc2c2occc12	19.1	> 50	13.1	23.9	18.8	> 50	15.3	38.7 µM	–	–	22.6	> 50	24.5	> 50 µM	20.5	> 50 µM	14.5	> 50	16.1	> 50 µM
